Assay [1] concerns the target T1, APJ (Homo sapiens, UniProt P35414).
T1 construct: expressed in transfected cells; host or cells: CHO (CHO-A10; clone 6 for the cAMP assay)
T1 sequence (P35414 1-380): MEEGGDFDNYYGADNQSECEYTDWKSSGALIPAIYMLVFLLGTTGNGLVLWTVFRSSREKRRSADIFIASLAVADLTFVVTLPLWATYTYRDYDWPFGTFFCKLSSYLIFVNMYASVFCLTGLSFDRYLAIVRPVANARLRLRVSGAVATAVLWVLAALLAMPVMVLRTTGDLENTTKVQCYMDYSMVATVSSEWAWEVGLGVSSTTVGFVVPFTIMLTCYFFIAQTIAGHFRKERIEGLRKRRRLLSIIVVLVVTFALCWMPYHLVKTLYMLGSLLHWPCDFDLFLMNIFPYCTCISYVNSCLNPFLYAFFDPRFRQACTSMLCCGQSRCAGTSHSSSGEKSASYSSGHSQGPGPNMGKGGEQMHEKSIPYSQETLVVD
Nature of the assay: Receptor binding assay-2 (compound in Reference Example 2 used). To be noted: compound in Reference Example 2 used as ligand; read-out: IC50. The procedure:
(§1) This product was mixed with an equal volume of an assay buffer (50 mM Tris-HCl/pH 7.5, 5 mM EDTA, 0.5 mM PMSF, 20 μg/ml leupeptin, 0.1 μg/ml pepstatin A, 4 μg/ml E-64 (Peptide Research Laboratory, Co.), 0.1% bovine serum albumin) and stored at −30° C. before use.
(§2) CHO-A10 cells were cultured, recovered with PBS containing 5 mM EDTA from a culture vessel, and suspended in the above-mentioned assay buffer not containing bovine serum albumin. The cells were homogenized 3 times at 12,000 rpm for 15 seconds by a Polytron homogenizer (manufactured by Kinematica Inc.) and then centrifuged (1000×g, 4° C., 10 minutes), and the supernatant was recovered. The precipitates were subjected again to the same procedure as above, and the respective supernatants were combined and centrifuged at 100,000×g, 4° C. for 1 hour, to recover precipitates (membrane fraction). The membrane fraction was suspended again in a small amount of the buffer, homogenized with a Teflon homogenizer and stored at −80° C. before use.
(§3) Binding assay was carried out under the following conditions. […] Measurement of non-specific binding was carried out using a well containing 1 μM unlabeled compound in place of the test sample. After the incubation was finished, a cell harvester (Packard) adapted to 96 wells and a filter unit (GF/C, Packard) were used for separation thereby capturing the membrane fraction on the filter. After the filter was sufficiently dried, Microcinti 0 (Packard) was added thereto, and using Top Count (Packard), the amount of the labeled material captured together with the membrane fraction on the filter was measured.

Assay [2] deals with T1, APJ. Briefly: Inhibitory activity on forskolin-stimulated cAMP production in CHO-A10 clone 6 cells. The assay is classed as cell-based. Particulars: read-out: EC50. How it is done:
Measurement of an Inhibitory Activity on Forskolin-Stimulated cAMP Production
Hanks' balanced salt solution (HBSS) containing 0.2 mM 3-isobutyl-1-methylxanthine (IBMX) and 0.05% bovine serum albumin was prepared as an assay buffer, and each well was washed twice with 500 μl assay buffer and pre-incubated at 37° C. for 30 minutes. Further, each well was washed once with 500 μl assay buffer, and a sample dissolved in the assay buffer containing 1 μM forskolin was added at a volume of 500 μl/well and incubated at 37° C. for 30 minutes. Wells incubated with the assay buffer not containing forskolin were prepared in the same manner in order to determine the basal level of cellular cAMP production, while wells incubated with the assay buffer containing forskolin were also prepared in order to determine the maximum level of cAMP production stimulated with forskolin. After incubation was finished, each well was washed once with 500 μl assay buffer, and 500 μl lysis buffer 1B attached to a cAMP EIA system from Amersham was added to each well, to extract cAMP. According to the protocol of the kit, 100 μl of each extract was used to determine the level of cAMP. For the inhibitory activity of the sample on cAMP production, the difference (inhibited cAMP production) between the maximum level and the level of cAMP in the sample-containing wells was determined, and the inhibitory activity was expressed as percentage relative to the increased level of cAMP production stimulated with forskolin (that is, the difference between the maximum level and basal level), and from this dose-reaction curve, the EC50 was determined.

In assay [3] the target is T1, APJ. Nature of the assay: Receptor binding assay-1 (125I-labeled compound in Reference Example 1, CHO-A10 membrane fraction). To be noted: 125I-labeled compound in Reference Example 1 at 100 pM, room temperature […]. How it is done: as §1, §2, §3

Non-standard residues stand in square brackets, D forms with d. Residues, ends and D or L forms follow the SMILES beside them. No end group written: not given here. *: point of attachment. Phe(4-Cl) = N[C@@H](Cc1ccc(Cl)cc1)C(=O)O; Lys(Me2) = CN(C)CCCC[C@H](N)C(=O)O; Cha = N[C@@H](CC1CCCCC1)C(=O)O; Dap = NC[C@H](N)C(=O)O; Hexanoyl = CCCCCC(=O)*

In US20040116336A1, “Peptide derivatives” (priority 2002, published 2004) one finds IC50 and EC50 data, which are given here for 14 compounds.

Take `CSCC[C@H](NC(=O)[C@@H]1CCCN1C(=O)CNC(=O)[C@H](CCCCN)NC(=O)[C@H](Cc1c[nH]cn1)NC(=O)[C@H](Cc1ccccc1)NC(=O)[C@H](CC(C)C)NC(=O)[C@H](CCCNC(=N)N)NC(=O)[C@@H]1CCCN1C(=O)[C@@H](N)CCCNC(=N)N)C(=O)N1CCC[C@H]1C(=O)N[C@@H](Cc1ccc(Cl)cc1)C(=O)O` [Compound in Ex. 16] (H-RPRLFHKGPMP[Phe(4-Cl)]-OH; N-terminus and C-terminus assumed): the IC50 was found to be 0.066 nM on APJ [1] and 8 nM on APJ [3]. In addition, the EC50 at APJ [2] worked out at 0.38 nM.
For H-RPRLSARGPMPF-OH [Compound in Ex. 24], the values for the IC50 on APJ [1] and on APJ [3] were 0.057 nM and 27 nM, respectively. Besides, the EC50 on APJ [2] was 0.25 nM.
Taken in the same sequence, the figures for `CC(C)C[C@H](NC(=O)[C@H](CCCNC(=N)N)NC(=O)[C@@H]1CCCN1C(=O)[C@H](CCCNC(=N)N)NC(=O)[C@H](CCC(N)=O)NC(=O)[C@H](CCCNC(=N)N)NC(=O)[C@@H](N)CCCNC(=N)N)C(=O)N[C@@H](CO)C(=O)N[C@@H](C)C(=O)N[C@@H](CCCNC(=N)N)C(=O)NCC(=O)N1CCC[C@H]1C(=O)N[C@@H](CC1CCCCC1)C(=O)O` [Compound in Ex. 6] were 0.046 nM, 1.4 nM and 0.55 nM.
Turning to `CC(C)C[C@H](NC(=O)[C@H](CCCNC(=N)N)NC(=O)[C@@H]1CCCN1C(=O)[C@@H](N)CCCNC(=N)N)C(=O)N[C@@H](Cc1ccccc1)C(=O)N[C@@H](Cc1c[nH]cn1)C(=O)N[C@@H](CCCCN)C(=O)NCC(=O)N1CCC[C@H]1C(=O)N[C@@H](CC1CCCCC1)C(=O)N1CCC[C@H]1C(=O)N[C@@H](Cc1ccc(Cl)cc1)C(=O)O` [Compound in Ex. 13] (H-RPRLFHKGP[Cha]P[Phe(4-Cl)]-OH; N-terminus and C-terminus assumed), the IC50 came out at 0.29 nM on APJ [1] and 2.7 nM on APJ [3]. In addition, the EC50 at APJ [2] stood at 1 nM.
The corresponding values for `CC(C)C[C@H](NC(=O)[C@H](CCCNC(=N)N)NC(=O)[C@@H]1CCCN1C(=O)[C@@H](N)CCCNC(=N)N)C(=O)N[C@@H](Cc1ccccc1)C(=O)N[C@@H](Cc1c[nH]cn1)C(=O)N[C@@H](CCCCN)C(=O)NCC(=O)N1CCC[C@H]1C(=O)N[C@@H](CC1CCCCC1)C(=O)N1CCC[C@H]1C(=O)N[C@@H](Cc1ccccc1)C(=O)O` [Compound in Ex. 15] (H-RPRLFHKGP[Cha]PF-OH; N-terminus and C-terminus assumed) are 0.13 nM, 8 nM and 0.46 nM.
The corresponding values for `CC(C)C[C@H](NC(=O)[C@H](CCCNC(=N)N)NC(=O)[C@@H]1CCCN1C(=O)[C@@H](N)CCCNC(=N)N)C(=O)N[C@@H](CO)C(=O)N[C@@H](C)C(=O)N[C@@H](CCCNC(=N)N)C(=O)NCC(=O)N1CCC[C@H]1C(=O)N[C@@H](CC1CCCCC1)C(=O)N1CCC[C@H]1C(=O)N[C@@H](Cc1ccc(Cl)cc1)C(=O)O` [Compound in Ex. 5] (H-RPRLSARGP[Cha]P[Phe(4-Cl)]-OH) are 0.13 nM, 1.2 nM and 0.51 nM.
Taken in the same sequence, the figures for `CSCC[C@H](NC(=O)[C@@H]1CCCN1C(=O)CNC(=O)[C@H](CCCNC(=N)N)NC(=O)[C@H](C)NC(=O)[C@H](CO)NC(=O)[C@H](CC(C)C)NC(=O)[C@H](CCCNC(=N)N)NC(=O)[C@@H]1CCCN1C(=O)[C@@H](N)CCCNC(=N)N)C(=O)N1CCC[C@H]1C(=O)N[C@@H](Cc1ccc(Cl)cc1)C(=O)O` [Compound in Ex. 3] (H-RPRLSARGPMP[Phe(4-Cl)]-OH; N-terminus and C-terminus assumed) were 0.036 nM, 0.91 nM and 0.32 nM.
As for `CCCCCC(=O)NC[C@H](NC(=O)[C@H](CO)NC(=O)[C@H](CC(C)C)NC(=O)[C@H](CCCNC(=N)N)NC(=O)[C@@H]1CCCN1C(=O)[C@@H](N)CCCNC(=N)N)C(=O)N[C@@H](CCCNC(=N)N)C(=O)NCC(=O)N1CCC[C@H]1C(=O)N[C@@H](CC1CCCCC1)C(=O)N1CCC[C@H]1C(=O)N[C@@H](Cc1ccc(Cl)cc1)C(=O)O` [Compound in Ex. 67, Arg-Pro-Arg-Leu-Ser-Dap(C6)-Arg-Gly-Pro-Cha-Pro-Phe(Cl)] (H-RPRLS[Dap](Hexanoyl)RGP[Cha]P[Phe(4-Cl)]-OH; N-terminus and C-terminus assumed), the IC50 on APJ [1] came out at 0.45 nM. Further, the EC50 at APJ [2] came to 1.1 nM.
The corresponding values for `CC(C)C[C@H](NC(=O)[C@H](CCCNC(=N)N)NC(=O)[C@@H]1CCCN1C(=O)[C@H](CCCNC(=N)N)NC(=O)[C@H](CCC(N)=O)NC(=O)[C@H](CCCNC(=N)N)NC(=O)[C@@H](N)CCCNC(=N)N)C(=O)N[C@@H](CO)C(=O)N[C@@H](C)C(=O)N[C@@H](CCCNC(=N)N)C(=O)NCC(=O)N(C)C` [Compound in Ex. 51] (H-RRQRPRLSARG-NMe2) are 0.16 nM and 0.49 nM.
Regarding RPRLFARGPMPF [Compound in Ex. 31], at APJ [1], the IC50 came to 0.27 nM. Besides, the EC50 on APJ [2] came to 0.14 nM.
For `CSCC[C@H](NC(=O)[C@@H]1CCCN1C(=O)CNC(=O)[C@H](CCCCN)NC(=O)[C@H](Cc1c[nH]cn1)NC(=O)[C@H](CO)NC(=O)[C@H](CC(C)C)NC(=O)[C@H](CCCNC(=N)N)NC(=O)[C@@H]1CCCN1C(=O)[C@@H](N)CCCNC(=N)N)C(=O)N[C@@H](CC1CCCCC1)C(=O)O` [Compound in Ex. 36] (H-RPRLSHKGPM[Cha]-OH; N-terminus and C-terminus assumed), the half-inhibitory concentration (IC50) on APJ [1] was found to be 0.51 nM. Also, the EC50 at APJ [2] was found to be 0.22 nM.
The corresponding values for `CSCC[C@H](NC(=O)[C@@H]1CCCN1C(=O)CNC(=O)[C@H](CCCNC(=N)N)NC(=O)[C@H](C)NC(=O)[C@H](CO)NC(=O)[C@H](CC(C)C)NC(=O)[C@H](CCCCN(C)C)NC(=O)[C@@H]1CCCN1C(=O)[C@@H](N)CCCNC(=N)N)C(=O)N1CCC[C@H]1C(=O)N[C@@H](Cc1ccccc1)C(=O)O` [Compound in Ex. 63] (H-RP[Lys(Me2)]LSARGPMPF-OH; N-terminus and C-terminus assumed) are 0.074 nM and 0.33 nM.
As for `CSCC[C@H](NC(=O)[C@@H]1CCCN1C(=O)CNC(=O)[C@H](CCCCN)NC(=O)[C@H](Cc1c[nH]cn1)NC(=O)[C@H](CO)NC(=O)[C@H](CC(C)C)NC(=O)[C@H](CCCNC(=N)N)NC(=O)[C@@H]1CCCN1C(=O)[C@H](CCCNC(=N)N)NC(=O)[C@H](Cc1ccccc1)NC(=O)[C@H](CCCNC(=N)N)NC(=O)[C@@H](N)CCCNC(=N)N)C(=O)N1CCC[C@H]1C(=O)N[C@@H](Cc1ccccc1)C(=O)O` [Compound in Ex. 33], the IC50 on APJ [1] was determined as 0.37 nM. On APJ [2], the EC50 worked out at 1.1 nM.
Taken in the same sequence, the figures for `CSCC[C@H](NC(=O)CNC(=O)CNC(=O)[C@H](CCCNC(=N)N)NC(=O)[C@H](C)NC(=O)[C@H](CO)NC(=O)[C@H](CC(C)C)NC(=O)[C@H](CCCNC(=N)N)NC(=O)[C@@H]1CCCN1C(=O)[C@@H](N)CCCNC(=N)N)C(=O)N1CCC[C@H]1C(=O)N[C@@H](Cc1ccc(Cl)cc1)C(=O)O` [Compound in Ex. 54] (H-RPRLSARGGMP[Phe(4-Cl)]-OH; N-terminus and C-terminus assumed) were 0.29 nM and 0.19 nM.
